From ChEMBL document CHEMBL1201862, “PubChem BioAssay data set” (2004) come the findings set out here.

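Cultured in 96-well plates, cells were exposed to test compound for 48 hours across five concentrations. GI50 = concentration required for 50% inhibition of growth.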 The source made the active and inactive calls. Cut-off read from the data, not from the text of the source: active = GI50 up to about 1.1 µM and inactive = higher.

Test systems include K562; ACHN; 786-0; BT-549; MCF7; HOP-92; OVCAR-4; UACC-257; Malme-3M; SF-295; SK-MEL-28; TK-10; A549; MDA-MB-435; PC-3; RPMI-8226; SNB-75; NCI-H522; HOP-62; SK-MEL-2.
Assay in all cases: growth of human tumour cells (NCI), 48 h

Turning to `CC[C@@H]1CC[C@@H]2[C@H](CC[C@]3(C)[C@@H](OS(=O)(=O)c4ccc(C)cc4)CC[C@@H]23)[C@H]1COS(=O)(=O)c1ccc(C)cc1`, the GI50 in the assay on K562, with ACHN, in the assay on 786-0, in the assay on BT-549, in the assay on MCF7 and in the assay with HOP-92 was > 100 µM (inactive) in each case. Moreover, the GI50 in the assay with OVCAR-4, with UACC-257, with Malme-3M, with SF-295, in the assay with SK-MEL-28 and in the assay with TK-10 was > 100 µM (inactive) throughout. The GI50 in the assay on A549, in the assay on MDA-MB-435, in the assay with PC-3 and with RPMI-8226 was > 100 µM (inactive) throughout.
On to `O=C(C/N=C(\CN(c1ccccc1)c1ccccc1)Oc1c([N+](=O)[O-])cc([N+](=O)[O-])cc1[N+](=O)[O-])N1CCNCC1`, for which the GI50 was > 100 µM (inactive) with K562; > 100 µM (inactive) in the assay with ACHN; 10.5 µM (inactive) in the assay on SNB-75; > 100 µM (inactive) in the assay with 786-0; > 100 µM (inactive) in the assay with BT-549; > 100 µM (inactive) in the assay with MCF7. Moreover, the GI50 with HOP-92 is 67.5 µM (inactive); in the assay with OVCAR-4, > 100 µM (inactive); in the assay on UACC-257, > 100 µM (inactive); with NCI-H522, > 100 µM (inactive); in the assay with Malme-3M it was > 100 µM (inactive); in the assay with SF-295 it was > 100 µM (inactive). Besides, the GI50 in the assay on SK-MEL-28, in the assay with TK-10, in the assay with A549, in the assay with MDA-MB-435, in the assay on PC-3 and in the assay with HOP-62 was > 100 µM (inactive) in each case. In addition, in the assay with RPMI-8226, the GI50 is > 100 µM (inactive).
On to `CC(=O)OC(Cc1ccc2ccccc2n1)(C(F)(F)F)C(F)(F)F`, for which the GI50 with K562 is 0.594 µM (active); in the assay with ACHN, 3.78 µM (inactive); in the assay on SNB-75, 4.36 µM (inactive); with 786-0, 1.52 µM (inactive); with BT-549, 1.6 µM (inactive); in the assay on MCF7, 0.063 µM (active). Moreover, the GI50 in the assay on HOP-92 is 0.142 µM (active); in the assay on OVCAR-4, 2.45 µM (inactive); with NCI-H522, 0.519 µM (active); in the assay with Malme-3M, 0.849 µM (active); in the assay with SF-295, 4.5 µM (inactive); with SK-MEL-28, 1.42 µM (inactive). Also, the GI50 is 0.33 µM (active) in the assay on TK-10; 9.53 µM (inactive) with A549; 1.36 µM (inactive) in the assay on SK-MEL-2; 1.21 µM (inactive) with MDA-MB-435; 2.09 µM (inactive) in the assay on PC-3; 10.4 µM (inactive) with HOP-62. Further, the GI50 in the assay on RPMI-8226 was 0.0272 µM (active).
Turning to `CCCCc1c2c(nc3c1CCCC3O)CCCC2` (stereo not drawn), the GI50 was 84.3 µM (inactive) with K562; 80 µM (inactive) in the assay on ACHN; > 100 µM (inactive) in the assay with SNB-75; > 100 µM (inactive) with 786-0; > 100 µM (inactive) with BT-549; > 100 µM (inactive) in the assay with MCF7. Moreover, the GI50 was 79.4 µM (inactive) with HOP-92; > 100 µM (inactive) in the assay on OVCAR-4; > 100 µM (inactive) in the assay with UACC-257; > 100 µM (inactive) with NCI-H522; > 100 µM (inactive) in the assay with Malme-3M; > 100 µM (inactive) in the assay with SF-295. In addition, the GI50 in the assay with TK-10, with A549, with SK-MEL-2, in the assay on MDA-MB-435, in the assay on PC-3 and with HOP-62 was > 100 µM (inactive) each time. In addition, in the assay on RPMI-8226, the GI50 was > 100 µM (inactive).
In the case of `Cc1ccc(N2C(=O)C=C(C3=C(O)C(=O)N(c4ccc(C)cc4)C3=O)C2=O)cc1`, the GI50 in the assay with K562 was > 100 µM (inactive); in the assay on ACHN, > 100 µM (inactive); in the assay on SNB-75, 42.3 µM (inactive); in the assay on 786-0, > 100 µM (inactive); in the assay on BT-549 it was > 100 µM (inactive); in the assay with MCF7 it was > 100 µM (inactive). In addition, the GI50 is 46.5 µM (inactive) in the assay on HOP-92; > 100 µM (inactive) in the assay on OVCAR-4; > 100 µM (inactive) in the assay with UACC-257; > 100 µM (inactive) in the assay with Malme-3M; > 100 µM (inactive) in the assay with SF-295; > 100 µM (inactive) with SK-MEL-28. For the same compound, the GI50 in the assay on TK-10, in the assay with A549, with MDA-MB-435, in the assay on PC-3, in the assay with HOP-62 and in the assay on RPMI-8226 was > 100 µM (inactive) throughout.
Consider `O=C(/C=C/c1ccccc1)CCC1C(=O)NC(=O)NC1=O`, for which the GI50 is 97.9 µM (inactive) in the assay with K562; > 100 µM (inactive) with ACHN; > 100 µM (inactive) with SNB-75; > 100 µM (inactive) in the assay with 786-0; > 100 µM (inactive) in the assay on BT-549; > 100 µM (inactive) with MCF7. The GI50 in the assay on HOP-92, with OVCAR-4, in the assay on UACC-257, in the assay on NCI-H522, in the assay on Malme-3M and in the assay on SF-295 was > 100 µM (inactive) each time. Besides, the GI50 with SK-MEL-28, with TK-10, with A549, in the assay on SK-MEL-2, in the assay with MDA-MB-435 and in the assay on PC-3 was > 100 µM (inactive) throughout. Also, the GI50 in the assay on RPMI-8226 was 43.4 µM (inactive).
In the case of `CCOC(=O)C1C(c2ccc(OC)cc2)c2c(n[nH]c2O)CC1(O)OCC` (stereo not drawn), the GI50 in the assay with ACHN, with SNB-75, in the assay on 786-0, with BT-549, in the assay with MCF7 and in the assay on HOP-92 was > 100 µM (inactive) in each case. Besides, the GI50 in the assay on OVCAR-4 is > 100 µM (inactive); in the assay on UACC-257, > 100 µM (inactive); with NCI-H522, > 100 µM (inactive); in the assay with Malme-3M, > 100 µM (inactive); in the assay with SF-295, 44.8 µM (inactive); in the assay with SK-MEL-28 it was > 100 µM (inactive). Besides, the GI50 in the assay on TK-10, with A549, in the assay on SK-MEL-2, in the assay on MDA-MB-435, in the assay with PC-3 and in the assay with HOP-62 was > 100 µM (inactive) in each case. For the same compound, in the assay on RPMI-8226, the GI50 is > 100 µM (inactive).
Turning to `O=c1cc(-c2ccccc2)nc(-n2[nH]c3c(c2=O)CCCC3)[nH]1`, the GI50 is 2.83 µM (inactive) in the assay on K562; 3.66 µM (inactive) with ACHN; 3.13 µM (inactive) with SNB-75; 1.91 µM (inactive) in the assay on 786-0; 9.38 µM (inactive) in the assay with BT-549; 3.37 µM (inactive) in the assay on MCF7. Also, the GI50 with HOP-92 is 2.85 µM (inactive); in the assay with OVCAR-4, 1.85 µM (inactive); with UACC-257 it was 5.86 µM (inactive); in the assay with NCI-H522, 12.1 µM (inactive); in the assay on Malme-3M, 11.1 µM (inactive); in the assay on SF-295, 4.33 µM (inactive). Also, the GI50 in the assay on SK-MEL-28 is 4.29 µM (inactive); with TK-10, 5 µM (inactive); with A549, 4.35 µM (inactive); with SK-MEL-2, 2.36 µM (inactive); with MDA-MB-435, 4.59 µM (inactive); in the assay on PC-3 it was 5 µM (inactive). Moreover, in the assay with RPMI-8226, the GI50 is 4.17 µM (inactive).
On to `Cn1c(=O)cc(NNc2ccc(Br)cc2)[nH]c1=O`, for which the GI50 in the assay with K562 was 1.17 µM (inactive); with ACHN it was 14 µM (inactive); with 786-0, 9.59 µM (inactive); in the assay with BT-549, 16.9 µM (inactive); in the assay on MCF7, 10.4 µM (inactive); with HOP-92, 13.9 µM (inactive). The GI50 is 16 µM (inactive) with OVCAR-4; 15.3 µM (inactive) with UACC-257; 16.6 µM (inactive) with Malme-3M; 13.4 µM (inactive) in the assay with SF-295; 17.3 µM (inactive) in the assay with SK-MEL-28; 20.3 µM (inactive) in the assay with TK-10. The GI50 was 13.9 µM (inactive) with A549; 12.4 µM (inactive) with MDA-MB-435; 10 µM (inactive) with PC-3; 12.8 µM (inactive) in the assay on HOP-62; 6 µM (inactive) in the assay on RPMI-8226.
Regarding `O=C(NC1=C(Cl)C(=O)c2ccccc2C1=O)c1ccc(F)cc1`, the GI50 is 0.91 µM (active) with K562; 0.938 µM (active) in the assay with ACHN; 5.83 µM (inactive) in the assay with SNB-75; 10.8 µM (inactive) in the assay with 786-0; 3.46 µM (inactive) in the assay with BT-549; 3.62 µM (inactive) in the assay on MCF7. Moreover, the GI50 in the assay on HOP-92 is 1.61 µM (inactive); in the assay with OVCAR-4, 6.67 µM (inactive); with UACC-257, 1.98 µM (inactive); in the assay on NCI-H522, 0.456 µM (active); in the assay with Malme-3M it was 1.52 µM (inactive); in the assay with SF-295 it was 4.06 µM (inactive). For the same compound, the GI50 in the assay with SK-MEL-28 was 4.86 µM (inactive); in the assay with TK-10 it was 5.09 µM (inactive); in the assay with A549, 5.37 µM (inactive); in the assay on MDA-MB-435 it was 4.45 µM (inactive); in the assay on PC-3, 1.13 µM (inactive); in the assay with HOP-62, 13.9 µM (inactive). The GI50 in the assay with RPMI-8226 was 2.51 µM (inactive).
Consider `Cc1ccc(S(=O)(=O)N2CCN(CCN(C)CCN3CCN(S(=O)(=O)c4ccc(C)cc4)CC3)CC2)cc1`, for which the GI50 in the assay with K562 was 15 µM (inactive); with ACHN, 17.9 µM (inactive); in the assay with 786-0 it was 19.4 µM (inactive); in the assay on BT-549 it was 16.9 µM (inactive); with MCF7 it was 17.7 µM (inactive); with HOP-92, 17.7 µM (inactive). Also, the GI50 is 19.5 µM (inactive) with OVCAR-4; 16.4 µM (inactive) in the assay with UACC-257; 19.8 µM (inactive) in the assay with NCI-H522; 18.6 µM (inactive) in the assay with Malme-3M; 17.9 µM (inactive) in the assay with SF-295; 17.1 µM (inactive) with SK-MEL-28. Further, the GI50 with TK-10 is 16.1 µM (inactive); in the assay on A549, 23.3 µM (inactive); in the assay with SK-MEL-2, 18.8 µM (inactive); in the assay with MDA-MB-435 it was 17.7 µM (inactive); with PC-3, 20.7 µM (inactive); with HOP-62, 17.8 µM (inactive). Moreover, the GI50 in the assay with RPMI-8226 is 16.6 µM (inactive).
